Activity calls are given as the source filed them. The calls are words filed in the database; no cut-off is given here.
Experiments:
[1] = biological target: Receptor-interacting serine/threonine-protein kinase 2 (Rattus norvegicus, UniProt G3V783); assay: Inhibition of rat RIPK2 preincubated for 10 mins followed by addition of fluorescent-labeled 2-Methyl-5-(2-propen-l-yloxy)aniline measured after 10 mins by fluorescence polarization assay
[2] = Fraction unbound in Sprague-Dawley rat blood at 2 mg/kg, po or 1 mg/kg, iv; assay type: ADME, organism-based; settings: whole blood
Homo sapiens = species: Homo sapiens; assay: Activation of TFNR in human monocytes assessed as inhibition of TNF-alpha-stimulated IL8 production preincubated for 30 mins prior to TNF-alpha stimulation at 1 uM measured after 6 hrs by immunoassay; assay type: cell-based
[3] = biological target: Toll-like receptor 2 (Homo sapiens) (UniProt O60603); assay: Activation of TLR2 receptor in human monocytes assessed as inhibition of Pam2Csk4-stimulated TNF-alpha production preincubated for 30 mins prior to Pam2Csk4 stimulation at 1 uM measured after 6 hrs by immunoassay; assay type: cell-based
[4] = biological target: Protein-tyrosine kinase 6 (Homo sapiens) (UniProt Q13882); assay: Inhibition of human full length N-terminal GST-tagged BRK expressed in baculovirus expression system at 1 uM
[5] = Cmax in C57BL/6 mouse at 2 mg/kg, po by LC-MS/MS analysis; assay type: ADME, organism-based; set-up: dose 2 mg/kg, route oral; settings: in vivo
[6] = biological target: T1, Interleukin-1 receptor type 1 (Homo sapiens) (UniProt P14778); assay: Activation of IL-1R in human monocytes assessed as inhibition of IL-1beta-stimulated TNF-alpha production preincubated for 30 mins prior to IL-1beta stimulation at 1 uM measured after 6 hrs by immunoassay; assay type: cell-based
T1 sequence (whole entry): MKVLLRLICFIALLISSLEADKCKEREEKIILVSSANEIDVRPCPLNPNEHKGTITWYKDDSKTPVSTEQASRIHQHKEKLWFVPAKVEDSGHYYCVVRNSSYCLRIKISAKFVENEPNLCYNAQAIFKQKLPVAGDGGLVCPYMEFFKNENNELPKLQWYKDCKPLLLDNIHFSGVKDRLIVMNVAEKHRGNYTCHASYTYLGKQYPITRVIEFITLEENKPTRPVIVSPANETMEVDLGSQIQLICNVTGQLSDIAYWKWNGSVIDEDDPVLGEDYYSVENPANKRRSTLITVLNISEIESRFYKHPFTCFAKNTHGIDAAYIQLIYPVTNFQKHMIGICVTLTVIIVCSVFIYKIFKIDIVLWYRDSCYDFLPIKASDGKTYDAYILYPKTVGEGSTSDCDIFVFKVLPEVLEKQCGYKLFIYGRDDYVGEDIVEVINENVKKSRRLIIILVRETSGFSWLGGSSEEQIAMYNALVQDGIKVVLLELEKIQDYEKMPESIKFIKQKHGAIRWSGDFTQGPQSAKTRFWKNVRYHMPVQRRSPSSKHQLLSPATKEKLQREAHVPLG

Intestinal mucosa [7] = assay: Inhibition of TNFalpha production in intestinal mucosa derived from Crohn's disease patient measured after 24 hrs by sandwich ELISA; assay type: functional, tissue-based; settings: Homo sapiens
Intestinal mucosa [8] = assay: Inhibition of IL6 production in intestinal mucosa derived from Crohn's disease patient measured after 24 hrs by sandwich ELISA; assay type: functional, tissue-based; settings: Homo sapiens
[9] = Half life in Sprague-Dawley rat at 2 mg/kg, po and 1 mg/kg, iv by LC-MS/MS analysis; assay type: ADME, organism-based; settings: in vivo
[10] = biological target: Receptor-interacting serine/threonine-protein kinase 3 (Homo sapiens, UniProt Q9Y572); assay: Inhibition of RIPK3 (unknown origin) in HEK-293 cells assessed as necroptic cell death at 10 uM by cell-based assay; settings: HEK293
Intestinal mucosa [11] = assay: Inhibition of IL6 production in intestinal mucosa derived from ulcerative colitis patient measured after 24 hrs by sandwich ELISA; assay type: functional, tissue-based; settings: Homo sapiens
[12] = biological target: Mitogen-activated protein kinase 14 (Homo sapiens, UniProt Q16539)
[13] = biological target: Nucleotide-binding oligomerization domain-containing protein 2 (Homo sapiens) (UniProt Q9HC29); assay: Activation of NOD2 in human monocytes assessed as inhibition of MDP-stimulated TNF-alpha production preincubated for 30 mins prior to MDP stimulation measured after 6 hrs by immunoassay; assay type: cell-based
[14] = Cmax in Sprague-Dawley rat at 2 mg/kg, po administered through cassette dosing as by LC-MS/MS analysis; assay type: ADME, organism-based; set-up: dose 2 mg/kg, route oral; settings: in vivo
Intestinal mucosa [15] = assay: Inhibition of TNFalpha production in intestinal mucosa derived from ulcerative colitis patient measured after 24 hrs by sandwich ELISA; assay type: functional, tissue-based; settings: Homo sapiens
[16] = biological target: Toll-like receptor 4 (Homo sapiens) (UniProt O00206); assay: Activation of TLR4 receptor in human monocytes assessed as inhibition of LPS-stimulated TNF-alpha production preincubated for 30 mins prior to LPS stimulation at 1 uM measured after 6 hrs by immunoassay; assay type: cell-based
[17] = Volume of distribution at steady state in C57BL/6 mouse at 2 mg/kg, po or 1 mg/kg, iv by LC-MS/MS analysis; assay type: ADME, organism-based; settings: in vivo, read-out: Vdss
Mus musculus = assay: Antiinflammatory activity in Balb/c mouse model of L18-MDP-induced inflammatory peritonitis assessed as inhibition of serum KC level into peritoneal cavity administered orally for 15 mins prior to L18-MDP-challenge measured after 4 hrs; assay type: functional, organism-based
[18] = AUC in Sprague-Dawley rat at 2 mg/kg, po administered through cassette dosing by LC-MS/MS analysis; assay type: ADME, organism-based; settings: in vivo
[19] = Oral bioavailability in C57BL/6 mouse at 2 mg/kg by LC-MS/MS analysis; assay type: ADME, organism-based; settings: in vivo
[20] = Volume of distribution at steady state in Sprague-Dawley rat at 2 mg/kg, po or 1 mg/kg, iv by LC-MS/MS analysis; assay type: ADME, organism-based; settings: in vivo, read-out: Vdss
[21] = Clearance in Sprague-Dawley rat at 2 mg/kg, po or 1 mg/kg, iv by LC-MS/MS analysis; assay type: ADME, organism-based; settings: in vivo
[22] = Oral bioavailability in Sprague-Dawley rat at 2 mg/kg by LC-MS/MS analysis; assay type: ADME, organism-based; settings: in vivo
[23] = Half life in C57BL/6 mouse at 2 mg/kg, po or 1 mg/kg, iv by LC-MS/MS analysis; assay type: ADME, organism-based; settings: in vivo
[24] = Clearance in C57BL/6 mouse at 2 mg/kg, po or 1 mg/kg, iv by LC-MS/MS analysis; assay type: ADME, organism-based; settings: in vivo

Chain of Receptor-interacting serine/threonine-protein kinase 2 (G3V783 whole entry): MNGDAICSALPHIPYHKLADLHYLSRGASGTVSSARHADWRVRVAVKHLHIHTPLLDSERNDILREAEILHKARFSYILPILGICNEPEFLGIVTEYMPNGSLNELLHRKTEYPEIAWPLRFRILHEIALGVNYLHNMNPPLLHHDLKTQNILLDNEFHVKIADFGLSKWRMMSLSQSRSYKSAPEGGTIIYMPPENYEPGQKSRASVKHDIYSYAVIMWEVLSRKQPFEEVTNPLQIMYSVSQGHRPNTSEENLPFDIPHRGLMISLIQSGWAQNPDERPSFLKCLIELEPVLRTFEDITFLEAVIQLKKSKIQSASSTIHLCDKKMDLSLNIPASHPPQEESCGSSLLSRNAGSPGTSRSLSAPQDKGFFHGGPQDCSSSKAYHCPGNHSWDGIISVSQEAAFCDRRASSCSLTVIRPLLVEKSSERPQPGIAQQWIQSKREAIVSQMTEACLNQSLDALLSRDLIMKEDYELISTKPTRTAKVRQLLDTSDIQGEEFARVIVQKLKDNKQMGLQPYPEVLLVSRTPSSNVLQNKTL
Chain of Nucleotide-binding oligomerization domain-containing protein 2 (Homo sapiens) (Q9HC29 whole entry, the tested form may be a part): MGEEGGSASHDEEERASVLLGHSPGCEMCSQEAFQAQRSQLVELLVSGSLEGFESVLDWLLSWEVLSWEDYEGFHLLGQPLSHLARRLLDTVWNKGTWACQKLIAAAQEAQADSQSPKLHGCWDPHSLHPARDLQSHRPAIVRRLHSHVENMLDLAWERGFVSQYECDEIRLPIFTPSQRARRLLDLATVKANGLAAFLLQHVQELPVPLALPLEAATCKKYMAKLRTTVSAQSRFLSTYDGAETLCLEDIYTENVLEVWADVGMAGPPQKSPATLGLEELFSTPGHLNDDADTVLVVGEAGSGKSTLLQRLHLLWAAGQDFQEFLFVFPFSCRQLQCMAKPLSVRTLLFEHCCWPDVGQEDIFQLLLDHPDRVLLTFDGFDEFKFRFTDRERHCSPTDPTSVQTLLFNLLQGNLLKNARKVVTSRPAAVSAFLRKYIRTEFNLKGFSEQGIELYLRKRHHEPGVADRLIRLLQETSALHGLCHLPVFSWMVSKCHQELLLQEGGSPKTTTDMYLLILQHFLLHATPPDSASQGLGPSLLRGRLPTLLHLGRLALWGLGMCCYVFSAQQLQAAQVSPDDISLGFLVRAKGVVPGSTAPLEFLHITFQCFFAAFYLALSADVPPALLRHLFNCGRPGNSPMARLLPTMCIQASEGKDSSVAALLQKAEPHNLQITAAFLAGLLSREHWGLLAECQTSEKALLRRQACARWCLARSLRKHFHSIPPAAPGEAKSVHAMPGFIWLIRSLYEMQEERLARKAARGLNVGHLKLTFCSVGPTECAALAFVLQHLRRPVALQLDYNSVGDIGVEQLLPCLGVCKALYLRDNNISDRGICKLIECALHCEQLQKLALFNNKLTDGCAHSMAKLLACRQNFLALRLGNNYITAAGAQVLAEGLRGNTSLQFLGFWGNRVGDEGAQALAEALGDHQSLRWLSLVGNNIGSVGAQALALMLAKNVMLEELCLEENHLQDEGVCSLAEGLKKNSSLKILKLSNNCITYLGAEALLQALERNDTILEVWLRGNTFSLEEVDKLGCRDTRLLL
Chain of Toll-like receptor 4 (Homo sapiens) (O00206 whole entry): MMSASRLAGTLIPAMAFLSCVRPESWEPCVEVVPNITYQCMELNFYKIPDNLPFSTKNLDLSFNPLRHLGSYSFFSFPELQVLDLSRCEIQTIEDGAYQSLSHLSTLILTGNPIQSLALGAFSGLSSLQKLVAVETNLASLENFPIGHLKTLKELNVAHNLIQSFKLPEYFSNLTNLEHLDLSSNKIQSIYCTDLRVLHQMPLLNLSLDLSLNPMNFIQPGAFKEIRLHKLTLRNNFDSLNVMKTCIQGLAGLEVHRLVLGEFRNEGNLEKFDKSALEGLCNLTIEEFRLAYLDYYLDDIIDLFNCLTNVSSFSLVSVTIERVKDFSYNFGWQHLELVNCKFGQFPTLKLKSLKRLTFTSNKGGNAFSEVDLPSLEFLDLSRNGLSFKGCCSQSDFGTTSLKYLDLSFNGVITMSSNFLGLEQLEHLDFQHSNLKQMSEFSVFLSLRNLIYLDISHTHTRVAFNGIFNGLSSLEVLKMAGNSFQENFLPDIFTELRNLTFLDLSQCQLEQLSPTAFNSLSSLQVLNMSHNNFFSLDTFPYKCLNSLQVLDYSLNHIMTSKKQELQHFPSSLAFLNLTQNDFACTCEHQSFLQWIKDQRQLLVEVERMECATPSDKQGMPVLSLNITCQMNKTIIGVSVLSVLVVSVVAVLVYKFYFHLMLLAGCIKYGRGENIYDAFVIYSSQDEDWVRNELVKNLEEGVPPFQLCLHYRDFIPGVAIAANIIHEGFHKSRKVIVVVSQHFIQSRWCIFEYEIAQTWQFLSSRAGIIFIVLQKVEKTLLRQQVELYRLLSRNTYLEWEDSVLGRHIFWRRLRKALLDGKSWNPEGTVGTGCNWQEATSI
Chain of Protein-tyrosine kinase 6 (Homo sapiens) (Q13882 whole entry, looked up): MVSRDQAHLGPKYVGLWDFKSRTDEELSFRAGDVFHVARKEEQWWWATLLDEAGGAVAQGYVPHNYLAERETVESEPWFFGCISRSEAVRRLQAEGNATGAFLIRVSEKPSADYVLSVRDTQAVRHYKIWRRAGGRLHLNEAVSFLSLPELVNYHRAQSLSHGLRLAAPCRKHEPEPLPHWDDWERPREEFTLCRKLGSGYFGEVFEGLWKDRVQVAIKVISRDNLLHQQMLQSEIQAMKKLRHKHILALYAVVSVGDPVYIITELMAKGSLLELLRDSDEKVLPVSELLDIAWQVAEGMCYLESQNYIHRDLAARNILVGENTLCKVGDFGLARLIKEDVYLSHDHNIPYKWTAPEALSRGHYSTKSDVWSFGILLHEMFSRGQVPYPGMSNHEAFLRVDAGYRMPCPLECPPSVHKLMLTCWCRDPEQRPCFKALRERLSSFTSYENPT
Chain of Toll-like receptor 2 (Homo sapiens) (O60603 whole entry): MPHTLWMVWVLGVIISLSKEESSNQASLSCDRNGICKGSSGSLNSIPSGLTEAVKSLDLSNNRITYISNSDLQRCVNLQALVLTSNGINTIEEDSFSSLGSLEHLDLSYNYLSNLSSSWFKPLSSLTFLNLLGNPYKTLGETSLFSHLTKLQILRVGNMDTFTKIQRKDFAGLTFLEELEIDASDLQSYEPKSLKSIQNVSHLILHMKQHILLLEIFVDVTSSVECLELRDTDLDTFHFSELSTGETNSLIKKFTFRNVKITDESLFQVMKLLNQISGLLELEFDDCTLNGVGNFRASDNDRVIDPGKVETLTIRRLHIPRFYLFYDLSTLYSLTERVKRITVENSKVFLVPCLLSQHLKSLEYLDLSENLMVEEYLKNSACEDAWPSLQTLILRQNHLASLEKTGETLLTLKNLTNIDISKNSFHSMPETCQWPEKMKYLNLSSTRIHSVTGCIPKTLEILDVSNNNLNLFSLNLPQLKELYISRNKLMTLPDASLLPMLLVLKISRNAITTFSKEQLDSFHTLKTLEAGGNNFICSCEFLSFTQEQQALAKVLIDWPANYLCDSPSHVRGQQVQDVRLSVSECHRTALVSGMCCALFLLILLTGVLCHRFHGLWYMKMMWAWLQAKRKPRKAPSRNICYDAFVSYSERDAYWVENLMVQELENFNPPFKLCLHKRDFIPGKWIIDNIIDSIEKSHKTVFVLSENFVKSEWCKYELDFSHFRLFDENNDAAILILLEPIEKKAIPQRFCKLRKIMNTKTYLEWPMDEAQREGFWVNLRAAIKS
Chain of Receptor-interacting serine/threonine-protein kinase 3 (Q9Y572 whole entry, looked up): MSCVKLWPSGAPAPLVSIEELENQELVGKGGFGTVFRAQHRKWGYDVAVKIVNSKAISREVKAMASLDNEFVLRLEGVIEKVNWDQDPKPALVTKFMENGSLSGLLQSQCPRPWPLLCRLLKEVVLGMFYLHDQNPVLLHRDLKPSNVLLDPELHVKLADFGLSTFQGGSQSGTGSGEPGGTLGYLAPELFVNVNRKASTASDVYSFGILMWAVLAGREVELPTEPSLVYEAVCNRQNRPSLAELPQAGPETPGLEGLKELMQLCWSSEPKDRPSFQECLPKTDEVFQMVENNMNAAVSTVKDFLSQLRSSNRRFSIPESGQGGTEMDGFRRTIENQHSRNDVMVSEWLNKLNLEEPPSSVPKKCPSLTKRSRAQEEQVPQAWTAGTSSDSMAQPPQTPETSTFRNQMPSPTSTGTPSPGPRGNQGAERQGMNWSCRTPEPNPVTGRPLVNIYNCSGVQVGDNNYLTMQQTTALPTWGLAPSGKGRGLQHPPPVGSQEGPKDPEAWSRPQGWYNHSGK
Chain of Mitogen-activated protein kinase 14 (Q16539 whole entry, the tested form may be a part): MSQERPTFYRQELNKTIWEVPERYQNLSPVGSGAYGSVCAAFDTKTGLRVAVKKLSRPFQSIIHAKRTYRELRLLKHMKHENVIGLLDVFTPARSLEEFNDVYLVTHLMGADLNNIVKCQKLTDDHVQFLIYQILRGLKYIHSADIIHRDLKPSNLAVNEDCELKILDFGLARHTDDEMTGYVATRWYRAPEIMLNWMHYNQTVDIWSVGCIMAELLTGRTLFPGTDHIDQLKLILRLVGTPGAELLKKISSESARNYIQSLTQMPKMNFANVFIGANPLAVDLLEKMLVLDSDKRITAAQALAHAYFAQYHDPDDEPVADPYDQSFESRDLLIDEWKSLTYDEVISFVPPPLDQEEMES

For `CC(C)(C)S(=O)(=O)c1ccc2nccc(Nc3n[nH]c4ccc(F)cc34)c2c1`, the IC50 [1] was 0.002 µM, the fraction unbound [2] was 0.026 and the inhibition (Homo sapiens) was “Active”. The inhibition [3] was “Active”, the inhibition [4] was 30% and the Cmax [5] was 340 ng/mL. For the same compound, the inhibition [6] was “Active”, the inhibition (Intestinal mucosa [7]) was “Dose-dependent effect” and the inhibition (Intestinal mucosa [8]) was “Dose-dependent effect”. The half-life [9] was 3.1 h, the inhibition [10] was “inactive” and the inhibition (Intestinal mucosa [11]) was “Dose-dependent effect”. The IC50 [12] was 5.12 µM, the inhibition [13] was “Active” and the Cmax [14] was 260 ng/mL. For the same compound, the inhibition (Intestinal mucosa [15]) was “Dose-dependent effect”, the inhibition [16] was “Active” and the Vd [17] was 1.2 L/kg. For the same compound, the Activity (Mus musculus) was “Dose-dependent effect”, the AUC [18] was 980 ng·h/mL and the bioavailability [19] was 34%. For the same compound, the Vd [20] was 2 L/kg, the clearance [21] was 15 mL/min/kg and the bioavailability [22] was 39%. It also gave a half-life [23] of 2.1 h and a clearance [24] of 13 mL/min/kg.
